Data from patent US10512700B2, “Radiohalide-labeled targeted diagnostics and therapeutics” (Memorial Sloan Kettering Cancer Center, priority 2014, dated 2019).
Values joined by “and” are separate entries in the source; they are usually repeats but may differ in a detail not shown here. Equal values may be shown once.

System: U87 MG tumor bearing mice
Assay: Biodistribution
Assay type: in vivo, mouse
Conditions: i.v.
Method: Biodistribution experiments were conducted on female nude mice (8-10 weeks old and 20-25 g in weight, n=21) bearing U87 MG subcutaneous xenografts. The radiolabeled preparation (20-30 μCi of compound C-2d (^131I) in 200 μL of a solution 90% PBS 10% PEG300) was administrated via the lateral tail vein. To determine a suitable specific activity (to achieve a sufficiently high tumor to organ ratio), several specific activities were tested (5 mCi/μmol, 50 mCi/μmol, 250 mCi/μmol) in mice bearing U87 MG tumors. The compound was allowed to circulate for 2 h post injection at which time mice were sacrificed and organs were harvested (n=3). The radioactive content in tissue of interest (blood, tumor, muscle, bone, liver, spleen, kidney, heart, lung, pancreas, brain, skin, small intestine, large intestine, stomach, tail, thyroid and feces) was measured on a Wizard 2470 Automatic Gamma Counter, and the tissue-associated activity was calculated as the mean % ID/g using the following formula: [(activity in the target organ/grams of tissue)/injected dose]×100%.
After determining the optimal specific activity (of the three tested), a suitable time window for imaging was determined by testing the compound distribution in nude mice bearing U87 MG tumors at different time points. The compound was allowed to circulate for various times (1, 2, and 6 h), after which the mice were sacrificed (n=3).

[1] = 250 mCi/μmol, 2 h post injection

Structure (SMILES): O=C(c1ccc([131I])cc1)N1CCN(C(=O)c2cc(Cc3n[nH]c(=O)c4ccccc34)ccc2F)CC1 [C-2d (^131I)]
- % ID/g, Tail [1]: 0.58 % ID/g
- % ID/g, Thyroid [1]: 0.20 % ID/g
- % ID/g, Tumor [1]: 0.18 % ID/g
- % ID/g, Blood (1 h post injection): 2.76 % ID/g
- % ID/g, Bone (1 h post injection): 0.19 % ID/g
- % ID/g, Brain (1 h post injection): 0.034 % ID/g
- % ID/g, Feces (1 h post injection): 7.31 % ID/g
- % ID/g, Heart (1 h post injection): 0.39 % ID/g
- % ID/g, Kidneys (1 h post injection): 1.60 % ID/g
- % ID/g, Large intestine (1 h post injection): 1.49 % ID/g
- % ID/g, Liver (1 h post injection): 4.61 % ID/g
- % ID/g, Lung (1 h post injection): 0.71 % ID/g
- % ID/g, Muscle (1 h post injection): 0.27 % ID/g
- % ID/g, Pancreas (1 h post injection): 0.74 % ID/g
- % ID/g, Skin (1 h post injection): 0.46 % ID/g
- % ID/g, Small intestine (1 h post injection): 13.70 % ID/g
- % ID/g, Spleen (1 h post injection): 0.64 % ID/g
- % ID/g, Stomach (1 h post injection): 1.88 % ID/g
- % ID/g, Tail (1 h post injection): 1.00 % ID/g
- % ID/g, Thyroid (1 h post injection): 0.56 % ID/g
- % ID/g, Tumor (1 h post injection): 0.50 % ID/g
- % ID/g, Blood (2 h post injection): 0.90 % ID/g
- % ID/g, Bone (2 h post injection): 0.044 % ID/g
- % ID/g, Brain (2 h post injection): 0.007±0.002 % ID/g and 0.007 % ID/g
- % ID/g, Feces (2 h post injection): 3.75 % ID/g
- % ID/g, Heart (2 h post injection): 0.10 % ID/g
- % ID/g, Kidneys (2 h post injection): 0.35 % ID/g
- % ID/g, Large intestine (2 h post injection): 0.94 % ID/g
- % ID/g, Liver (2 h post injection): 1.02 % ID/g
- % ID/g, Lung (2 h post injection): 0.28 % ID/g
- % ID/g, Muscle (2 h post injection): 0.04±0.02 % ID/g and 0.039 % ID/g
- % ID/g, Pancreas (2 h post injection): 0.42 % ID/g
- % ID/g, Skin (2 h post injection): 0.091 % ID/g
- % ID/g, Small intestine (2 h post injection): 7.16 % ID/g
- % ID/g, Spleen (2 h post injection): 0.15 % ID/g
- % ID/g, Stomach (2 h post injection): 1.90 % ID/g
- % ID/g, Tail (2 h post injection): 0.45 % ID/g
- % ID/g, Thyroid (2 h post injection): 0.14 % ID/g
- % ID/g, Tumor (2 h post injection): 0.17±0.06 % ID/g and 0.17 % ID/g
- % ID/g, Blood (6 h post injection): 0.34 % ID/g
- % ID/g, Bone (6 h post injection): 0.035 % ID/g
- % ID/g, Brain (6 h post injection): 0.008 % ID/g
- % ID/g, Feces (6 h post injection): 70.67 % ID/g
- % ID/g, Heart (6 h post injection): 0.075 % ID/g
- % ID/g, Kidneys (6 h post injection): 0.24 % ID/g
- % ID/g, Large intestine (6 h post injection): 1.33 % ID/g
- % ID/g, Liver (6 h post injection): 0.65 % ID/g
- % ID/g, Lung (6 h post injection): 0.12 % ID/g
- % ID/g, Muscle (6 h post injection): 0.023 % ID/g
- % ID/g, Pancreas (6 h post injection): 0.084 % ID/g
- % ID/g, Skin (6 h post injection): 0.072 % ID/g
- % ID/g, Small intestine (6 h post injection): 1.13 % ID/g
- % ID/g, Spleen (6 h post injection): 0.060 % ID/g
- % ID/g, Stomach (6 h post injection): 0.81 % ID/g
- % ID/g, Tail (6 h post injection): 0.31 % ID/g
- % ID/g, Thyroid (6 h post injection): 0.098 % ID/g
- % ID/g, Tumor (6 h post injection): 0.13 % ID/g
